Data on eleven molecules can be found in patent US20250289808A1 (BenoBio Co., Ltd, priority 2024, published 2025).

Data set [1] concerns retinal degeneration mouse model. Description: Electroretinogram (ERG) in blue LED-induced retinal degeneration mouse model. The class given is in vivo, BALB/c mice. Particulars: compound 24 nM, Eylea 25 mg/kg; for Wavelength enhanced multiple compared to a normal saline-treated group, Average value: average of a-wave and b-wave; for Wavelength enhanced multiple compared to a normal saline-treated group, a-wave / Wavelength enhanced multiple compared to a normal saline-treated group, b-wave: single intravitreal injection 1 hour after LED exposure.

Data set [2] deals with macular degeneration animal model. Description: Laser-induced macular degeneration mouse model, FFA and OCT imaging. The class given is in vivo. Particulars: day 11, compound 0.022 μg/eye, Eylea 20 μg/eye. As for the experimental part:
After the mouse was subjected to general anesthesia, the eye was applied with anesthetic eye drops to be subjected to additional local anesthesia and additionally induce mydriasis. A macular degeneration animal model was prepared by destroying the Bruch's membrane by inducing laser burn according to macular degeneration induction conditions. […] On day 11 of macular degeneration induction, the mice were subjected to general anesthesia and then injected intraperitoneally with a fluorescent contrast agent. The mouse was placed on the sacrifice table, lubricating gel was dropped into the corresponding eye, and an OCT lens was brought into contact with the mouse's cornea. Image analysis for fluorescein fundus angiography (FFA) and OCT was performed using the Image-J program.

The next data set has as its target T1, BRD2 (BD1) (Homo sapiens, UniProt P25440).
T1 construct: a bromodomain of BRD2 (BD1) and BRD3 (BD1), one of the BET protein family
The experiment in a line: Binding inhibitory effect on BRD2 protein (AlphaScreen, acetyl-histone H4 peptide). Particulars: GST-BRD2 (BD1) 100 nM, biotinylated acetyl-histone H4 peptide 100 nM. In general terms: In Alpha technology, singlet oxygen from a donor bead excites a nearby acceptor bead.

Another data set has as its target T2, BRD3 (BD1) (Homo sapiens, UniProt Q15059).
T2 construct: a bromodomain of BRD2 (BD1) and BRD3 (BD1), one of the BET protein family; GST
The experiment in a line: Binding inhibitory effect on BRD3 protein (AlphaScreen, same manner as 1-1). Particulars: same manner as Experimental Example 1-1.

T1 sequence (P25440 74-180 limits assumed): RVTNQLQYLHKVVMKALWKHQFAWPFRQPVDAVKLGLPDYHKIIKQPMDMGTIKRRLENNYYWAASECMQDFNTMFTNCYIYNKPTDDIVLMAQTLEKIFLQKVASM
T2 sequence (Q15059 34-140 limits assumed): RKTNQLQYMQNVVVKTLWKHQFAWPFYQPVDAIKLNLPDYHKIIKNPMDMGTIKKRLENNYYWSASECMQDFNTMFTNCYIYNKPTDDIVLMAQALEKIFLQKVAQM

For the molecule `CNC(=O)C1(C)CN(Cc2ccc(-c3ccccc3-c3cccc4c3CN(C)C4=O)o2)CCC1O` (stereo not shown) [Compound 25], in data set [1], the “Wavelength enhanced multiple compared to a normal saline-treated group, Average value” is recorded as 1.27; the “Wavelength enhanced multiple compared to a normal saline-treated group, a-wave” value was determined as 1.52; the “Wavelength enhanced multiple compared to a normal saline-treated group, b-wave” value came out at 1.01. In addition, in data set [2] (FFA imaging), the CTF value is reported as 300,650 Pixels and the “Lesion size compared to negative control group” value was 32.66%. Besides, in data set [2] (OCT imaging), the “Lesion size compared to negative control group” value turned out to be 44.01% and the Volume of lesion is listed as 958,694 μm^3.
Take `CNC(=O)C1(Cc2ccc(F)cc2)CCN(Cc2ccc(-c3ccccc3-c3cccc4c3CN(C)C4=O)o2)CC1` [Compound 21, 2-methyl-4-(2-(5-(((4-(4-fluorobenzyl)-4′-carboxamidyl)piperidine)methyl)furan-2-yl)phenyl)isoindoline-1-one]: in data set [1], the “Wavelength enhanced multiple compared to a normal saline-treated group, Average value” is 2.30; the “Wavelength enhanced multiple compared to a normal saline-treated group, a-wave” value is on record as 2.17; the “Wavelength enhanced multiple compared to a normal saline-treated group, b-wave” value amounted to 2.42. In addition, in data set [2] (FFA imaging), the CTF value is reported as 251,239 Pixels and the “Lesion size compared to negative control group” value came to 27.29%. For the same molecule, in data set [2] (OCT imaging), the “Lesion size compared to negative control group” value was determined as 40.79% and the Volume of lesion is 888,502 μm^3.
Turning to `CNC(=O)C1(Cc2ccccc2)CCCN(Cc2ccc(-c3ccccc3-c3cccc4c3CN(C)C4=O)o2)C1` (stereo not shown) [Compound 27], the values for the IC50 on BRD2 (BD1) and on BRD3 (BD1) were 14.1 µM and 2.54 µM, respectively.
For the molecule `CNC(=O)CC1C(=O)NCCN1C(=O)c1ccc(-c2ccccc2-c2cccc3c2CN(C)C3=O)o1` (stereo not shown) [Compound 35], the IC50 (as a rule, the point on the concentration scale where inhibition reaches its midpoint) on BRD2 (BD1) was 12.3 µM; at BRD3 (BD1), 1.22 µM.
As for `CN1Cc2c(cccc2-c2ccccc2-c2ccc(COCN3CCC(F)(F)CC3)o2)C1=O` [Compound 37, 2-methyl-4-(2-(5-((((4,4-difluoropiperidine-1-yl)methoxy)-3-carboxamidyl)methyl)furan-2-yl)phenyl)isoindoline-1-one], in data set [1], the “Wavelength enhanced multiple compared to a normal saline-treated group, Average value” worked out at 1.38; the “Wavelength enhanced multiple compared to a normal saline-treated group, a-wave” value came to 1.45; the “Wavelength enhanced multiple compared to a normal saline-treated group, b-wave” value stood at 1.31. Moreover, in data set [2] (FFA imaging), the CTF value was 320,028 Pixels and the “Lesion size compared to negative control group” value was found to be 34.76%. Also, in data set [2] (OCT imaging), the “Lesion size compared to negative control group” value was 46.40% and the Volume of lesion was 1,010,752 μm^3.
`CNC(=O)C1(Cc2ccc(F)cc2)CCN(Cc2oc(-c3ccccc3-c3cccc4c3CN(C)C4=O)cc2C)CC1` [Compound 39, 2-methyl-4-(2-(5-((3-methyl (4-(4-fluorobenzyl)-4′-carboxamidyl)piperidine)methyl)furan-2-yl)phenyl)isoindoline-1-one]: in data set [1], the “Wavelength enhanced multiple compared to a normal saline-treated group, Average value” is reported as 1.36; the “Wavelength enhanced multiple compared to a normal saline-treated group, a-wave” value stood at 1.21; the “Wavelength enhanced multiple compared to a normal saline-treated group, b-wave” value came out at 1.51. Besides, in data set [2] (FFA imaging), the CTF value is 252,108 Pixels and the “Lesion size compared to negative control group” value is 27.38%. Further, in data set [2] (OCT imaging), the “Lesion size compared to negative control group” value came to 58.10% and the Volume of lesion was 1,265,636 μm^3.
Consider `CN1Cc2c(cccc2-c2ccccc2-c2ccc(CNCc3cnn(C)c3)o2)C1=O` [Compound 18, 2-methyl-4-(2-(5-((((1-methyl-1H-pyrazole-4yl)methyl)amino)methyl)furan-2-yl)phenyl)isoindoline-1-one], for which, in data set [1], the “Wavelength enhanced multiple compared to a normal saline-treated group, Average value” is 2.04; the “Wavelength enhanced multiple compared to a normal saline-treated group, a-wave” value is 2.05; the “Wavelength enhanced multiple compared to a normal saline-treated group, b-wave” value was determined as 2.03. In data set [2] (FFA imaging), the CTF value was 389,222 Pixels and the “Lesion size compared to negative control group” value came to 42.28%. In data set [2] (OCT imaging), the “Lesion size compared to negative control group” value came out at 45.15% and the Volume of lesion is listed as 983,477 μm^3.
Take `CCC1(C(=O)NC)CCCN(Cc2oc(-c3ccccc3-c3cccc4c3CN(C)C4=O)cc2C)C1` (stereo not shown) [Compound 40]: in data set [1], the “Wavelength enhanced multiple compared to a normal saline-treated group, Average value” came out at 1.30; the “Wavelength enhanced multiple compared to a normal saline-treated group, a-wave” value was 1.16; the “Wavelength enhanced multiple compared to a normal saline-treated group, b-wave” value was 1.43. Besides, in data set [2] (FFA imaging), the CTF value is given as 362,456 Pixels and the “Lesion size compared to negative control group” value turned out to be 39.37%. Moreover, in data set [2] (OCT imaging), the “Lesion size compared to negative control group” value was 54.01% and the Volume of lesion was 1,176,522 μm^3.
Molecule `CC(C)NCc1ccc(-c2ccccc2-c2cccc3c2CN(C)C3=O)o1` [Compound 8, 2-methyl-4-(2-(5-((isopropylamino)methyl)furan-2-yl)phenyl)isoindoline-1-one] gave a 50% inhibitory concentration (IC50) on BRD2 (BD1) of 16.6 µM.
For `CN1Cc2c(cccc2-c2ccccc2-c2ccc(CN3CCOCC3)o2)C1=O` [Compound 13, 2-methyl-4-(2-(5-(morpholinomethyl)furan-2-yl)phenyl)isoindoline-1-one], in data set [1], the “Wavelength enhanced multiple compared to a normal saline-treated group, Average value” is recorded as 1.33; the “Wavelength enhanced multiple compared to a normal saline-treated group, a-wave” value worked out at 1.29; the “Wavelength enhanced multiple compared to a normal saline-treated group, b-wave” value was determined as 1.36. Besides, in data set [2] (FFA imaging), the CTF value is 321,816 Pixels and the “Lesion size compared to negative control group” value is recorded as 34.96%. Besides, in data set [2] (OCT imaging), the “Lesion size compared to negative control group” value came out at 57.66% and the Volume of lesion is 1,256,002 μm^3.
In the case of `CNC(=O)CC1C(=O)NCCN1Cc1oc(-c2ccccc2-c2cccc3c2CN(C)C3=O)cc1C` (stereo not shown) [Compound 42, 2-methyl-4-(2-(5-(3-methyl(N-methyl-2-(3-oxopiperazine-2yl)acetamidyl)methyl)furan-2-yl)phenyl)isoindoline-1-one], in data set [1], the “Wavelength enhanced multiple compared to a normal saline-treated group, Average value” was 1.32; the “Wavelength enhanced multiple compared to a normal saline-treated group, a-wave” value is on record as 1.25; the “Wavelength enhanced multiple compared to a normal saline-treated group, b-wave” value is given as 1.38. Also, in data set [2] (FFA imaging), the CTF value is 381,846 Pixels and the “Lesion size compared to negative control group” value is 41.48%. Further, in data set [2] (OCT imaging), the “Lesion size compared to negative control group” value was 52.86% and the Volume of lesion is listed as 1,151,561 μm^3.
